Laboratory results taken from patent EP3827825A1, “USE OF 3, 4-DIARYLPYRAZOLES AS ANTIBACTERIAL AGENTS” (Wageningen Universiteit, priority 2019, dated 2021).
≈ marks a conversion by molar mass, not a printed value. Read-outs that look alike come from different tables or passages of the source.

Assays:
S. aureus Newman = assay: Minimal inhibitory concentration (MIC), double-dilution in broth, OD600; assay type: cell-based, Staphylococcus aureus Newman; details: unit assumed
Procedure, shortened: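 Twofold broth dilution series of compound from a DMSO stock, against S. aureus Newman from a 1:100-diluted overnight culture. Plates were incubated for 24 hours, then read at OD600. The MIC is the lowest concentration showing no growth.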

S. suis = assay: as above; assay type: cell-based, Streptococcus suis; details: unit assumed
Procedure, shortened: (§1)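 Read-out was OD600 after 24 h incubation, with MIC defined as the lowest compound concentration showing no visible growth. Plates held twofold broth dilutions from 50 µg/mL, seeded with 100-fold diluted overnight cultures. For M. marinum, 7H9 broth and 3 days at 30 °C applied.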

P. multocida = assay: as above; assay type: cell-based, Pasteurella multocida; details: unit assumed
Procedure, shortened: as §1

M. marinum = assay: Minimal inhibitory concentration (MIC), Middlebrook 7H9 broth, 3 days at 30 °C; assay type: cell-based, Mycobacterium marinum; details: unit assumed
Procedure, shortened: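 MICs came from two-fold broth dilutions from 5 mg/mL DMSO stocks, with 100-fold-diluted overnight cultures incubated overnight/24 h; growth was read at OD600 and the MIC taken as the lowest concentration without growth. For M. marinum, Middlebrook 7H9 broth was used with 3 days at 30 °C.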

E. coli JW5503 = assay type: cell-based, Escherichia coli; details: unit assumed
Procedure, shortened: as §1

E. faecium Van A = assay: Minimal inhibitory concentration (MIC), double-dilution in broth, OD600; assay type: cell-based, Enterococcus faecium; details: unit assumed
Procedure, shortened: as §1

HEK293 = assay: Cell toxicity, Alamar blue assay, 24 hours exposure; assay type: cell-based; details: for IC50: Homo sapiens
Procedure, shortened: (§2)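 Alamar blue (resazurin→resorufin) viability in NRK-52E and HEK293 cells after 24 h exposure to HKI compounds at 0.39–500 µg/mL in serum-free medium. Compounds were removed, dye added for 45 min, fluorescence read. Mostly single measurements.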

NRK-52E = assay: as above; assay type: cell-based; details: for IC50: Rattus norvegicus, read-out: IC50 NRK-52E (50 mg/mL stock)
Procedure, shortened: as §2

[1] = HEK293, read-out: IC50 HEK293 (5 mg/mL stock)
[2] = HEK293, read-out: IC50 HEK293 (50 mg/mL stock)

## Oc1cc(OCc2ccc(Br)cc2)ccc1-c1n[nH]c(C(F)(F)F)c1-c1ccc(Cl)cc1 [May-18, 5-(4-bromobenzyl)oxy-2-[4-(4-chlorophenyl)-5-(trifluoromethyl)-1∼{H}-pyrazol-3-yl]phenol]
S. aureus Newman
  MIC S. aureus Newman: 0.78 µg/mL (≈ 1.49 µM)
S. suis
  MIC S. suis: 3.13 µg/mL (≈ 5.98 µM)
P. multocida
  MIC P. multocida: > 50 µg/mL
M. marinum
  MIC M. marinum: 6.25 µg/mL (≈ 11.9 µM)
E. coli JW5503
  MIC E. coli JW5503: > 50 µg/mL
E. faecium Van A
  MIC E. faecium Van A: 3.13 µg/mL (≈ 5.98 µM)
HEK293; HEK293, 50 mg/mL stock
  IC50 HEK293 (50 mg/mL stock): 4.7
NRK-52E
  IC50 NRK-52E (50 mg/mL stock): 4.568

## NNC(=O)COc1ccc(-c2n[nH]c(C(F)(F)F)c2-c2ccc(Br)cc2)c(O)c1 [May-12, 2-[4-[4-(4-bromophenyl)-5-(trifluoromethyl)-1∼{H}-pyrazol-3-yl]-3-hydroxy-phenoxy]acetohydrazide]
S. aureus Newman
  MIC S. aureus Newman: 12.5 µg/mL (≈ 26.5 µM)
S. suis
  MIC S. suis: 6.25 µg/mL (≈ 13.3 µM)
P. multocida
  MIC P. multocida: 50 µg/mL (≈ 106 µM)
M. marinum
  MIC M. marinum: > 50 µg/mL
E. coli JW5503
  MIC E. coli JW5503: 6.25 µg/mL (≈ 13.3 µM)
E. faecium Van A
  MIC E. faecium Van A: 12.5 µg/mL (≈ 26.5 µM)
HEK293; [1]
  IC50: 7.04 µg/mL (≈ 14.9 µM)
NRK-52E
  IC50: 27.2 µg/mL (≈ 57.7 µM)

## CCOc1ccc(-c2[nH]nc(C(F)(F)F)c2-c2ccc(Cl)cc2)c(O)c1 [May-27, 2-[4-(4-chlorophenyl)-5-(trifluoromethyl)-1∼{H}-pyrazol-3-yl]-5-ethoxy-phenol]
S. aureus Newman
  MIC S. aureus Newman: 3.13 µg/mL (≈ 8.18 µM)
S. suis
  MIC S. suis: 3.13 µg/mL (≈ 8.18 µM)
P. multocida
  MIC P. multocida: 25 µg/mL (≈ 65.3 µM)
M. marinum
  MIC M. marinum: 50 µg/mL (≈ 131 µM)
E. coli JW5503
  MIC E. coli JW5503: 3.13 µg/mL (≈ 8.18 µM)
E. faecium Van A
  MIC E. faecium Van A: 3.13 µg/mL (≈ 8.18 µM)
HEK293; [1]
  IC50: 10.8 µg/mL (≈ 28.3 µM)
HEK293; [2]
  IC50: 118 µg/mL (≈ 309 µM)
NRK-52E
  IC50: 181 µg/mL (≈ 472 µM)

## COc1ccc(-c2[nH]nc(C)c2-c2ccc(Br)cc2)c(O)c1 [May-4, 2-[4-(4-bromophenyl)-5-methyl-1∼{H}-pyrazol-3-yl]-5-methoxy-phenol]
S. aureus Newman
  MIC S. aureus Newman: 6.25 µg/mL (≈ 17.4 µM)
S. suis
  MIC S. suis: 6.25 µg/mL (≈ 17.4 µM)
P. multocida
  MIC P. multocida: 12.5 µg/mL (≈ 34.8 µM)
M. marinum
  MIC M. marinum: 25 µg/mL (≈ 69.6 µM)
E. coli JW5503
  MIC E. coli JW5503: 3.13 µg/mL (≈ 8.71 µM)
E. faecium Van A
  MIC E. faecium Van A: 12.5 µg/mL (≈ 34.8 µM)
HEK293; [1]
  IC50: 8.96 µg/mL (≈ 24.9 µM)
NRK-52E
  IC50: ~83.7 µg/mL (≈ 233 µM)

## COc1ccc(-c2c(-c3ccc(OCC(=O)NN)cc3O)n[nH]c2C(F)(F)F)cc1 [May-17, 2-[3-hydroxy-4-[4-(4-methoxyphenyl)-5-(trifluoromethyl)-1∼{H}-pyrazol-3-yl]phenoxy]acetohy drazide]
S. aureus Newman
  MIC S. aureus Newman: 25 µg/mL (≈ 59.2 µM)
S. suis
  MIC S. suis: 25 µg/mL (≈ 59.2 µM)
P. multocida
  MIC P. multocida: > 50 µg/mL
M. marinum
  MIC M. marinum: > 50 µg/mL
E. coli JW5503
  MIC E. coli JW5503: 6.25 µg/mL (≈ 14.8 µM)
E. faecium Van A
  MIC E. faecium Van A: 25 µg/mL (≈ 59.2 µM)
HEK293; [1]
  IC50: 15 µg/mL (≈ 35.5 µM)
NRK-52E
  IC50: 22 µg/mL (≈ 52.2 µM)

## C=C(C)COc1ccc(-c2[nH]nc(C(F)(F)F)c2-c2ccccc2)c(O)c1 [Sep-9, 5-(2-methylallyloxy)-2-[4-phenyl-5-(trifluoromethyl)-1∼{H}-pyrazol-3-yl]phenol]
S. aureus Newman
  MIC S. aureus Newman: 6.25 µg/mL (≈ 16.7 µM)
S. suis
  MIC S. suis: 25 µg/mL (≈ 66.8 µM)
P. multocida
  MIC P. multocida: 50 µg/mL (≈ 134 µM)
M. marinum
  MIC M. marinum: > 50 µg/mL
E. coli JW5503
  MIC E. coli JW5503: 6.25 µg/mL (≈ 16.7 µM)
E. faecium Van A
  MIC E. faecium Van A: 0.78 µg/mL (≈ 2.08 µM)
HEK293; [1]
  IC50: 16.1 µg/mL (≈ 43.1 µM)
NRK-52E
  IC50: ~10.9 µg/mL (≈ 29 µM)

## Oc1cc(OCc2ccccc2)ccc1-c1[nH]nc(C(F)(F)F)c1-c1ccccc1 [May-24, 5-benzoxy-2-[4-phenyl-5-(trifluoromethyl)-1∼{H}-pyrazol-3-yl]phenol]
S. aureus Newman
  MIC S. aureus Newman: 1.56 µg/mL (≈ 3.8 µM)
S. suis
  MIC S. suis: 3.13 µg/mL (≈ 7.63 µM)
P. multocida
  MIC P. multocida: > 50 µg/mL
M. marinum
  MIC M. marinum: 25 µg/mL (≈ 60.9 µM)
E. coli JW5503
  MIC E. coli JW5503: 25 µg/mL (≈ 60.9 µM)
E. faecium Van A
  MIC E. faecium Van A: 1.56 µg/mL (≈ 3.8 µM)
HEK293; [2]
  IC50: 4.8 µg/mL (≈ 11.7 µM)
NRK-52E
  IC50: ~3.86 µg/mL (≈ 9.41 µM)

## CCOc1cc(O)c(-c2n[nH]c(C(F)(F)F)c2-c2ccccc2)cc1CC [Sep-2, 5-ethoxy-4-ethyl-2-[4-phenyl-5-(trifluoromethyl)-1∼{H}-pyrazol-3-yl]phenol]
S. aureus Newman
  MIC S. aureus Newman: 6.25 µg/mL (≈ 16.6 µM)
S. suis
  MIC S. suis: 25 µg/mL (≈ 66.4 µM)
P. multocida
  MIC P. multocida: > 50 µg/mL
M. marinum
  MIC M. marinum: > 50 µg/mL
E. coli JW5503
  MIC E. coli JW5503: 25 µg/mL (≈ 66.4 µM)
E. faecium Van A
  MIC E. faecium Van A: 25 µg/mL (≈ 66.4 µM)
HEK293; [1]
  IC50: 3.97 µg/mL (≈ 10.5 µM)
NRK-52E
  IC50: ~17.4 µg/mL (≈ 46.2 µM)

## Oc1cc(OCc2ccc(Br)cc2)ccc1-c1n[nH]c(C(F)(F)F)c1-c1ccc(Cl)cc1 [Sep-13, 5-(4-bromobenzyl)oxy-2-[4-(4-chlorophenyl)-5-(trifluoromethyl)-1∼{H}-pyrazol-3-yl]phenol]
S. aureus Newman
  MIC S. aureus Newman: 1.56 µg/mL (≈ 2.98 µM)
S. suis
  MIC S. suis: 6.25 µg/mL (≈ 11.9 µM)
P. multocida
  MIC P. multocida: > 50 µg/mL
M. marinum
  MIC M. marinum: 25 µg/mL (≈ 47.7 µM)
E. coli JW5503
  MIC E. coli JW5503: > 50 µg/mL
E. faecium Van A
  MIC E. faecium Van A: 12.5 µg/mL (≈ 23.9 µM)
HEK293; HEK293, 5 mg/mL stock
  IC50 HEK293 (5 mg/mL stock): 16.51
NRK-52E
  IC50 NRK-52E (50 mg/mL stock): 10.89
